Laboratory results as given in PMC8709997, “Long-term memory T cells as preventive anticancer immunity elicited by TuA-derived heteroclitic peptides” (Journal of Translational Medicine, 2021).
Several values for one entry are separate records, joined by “and”; a condition that tells them apart may be missing. Equal values may be shown once.

Columns and labels:
H-2 Db molecule = H-2 Db molecule (Mus musculus, UniProt P01899); assay: Peptide binding to H-2 Db on TAP-deficient RMA-S cells (flow cytometry); format: cell-based, murine; conditions: RMA-S cells loaded with sub-optimal 1 μM peptide, mean fluorescence intensity
Sequence of H-2 Db molecule (P01899 whole entry, looked up): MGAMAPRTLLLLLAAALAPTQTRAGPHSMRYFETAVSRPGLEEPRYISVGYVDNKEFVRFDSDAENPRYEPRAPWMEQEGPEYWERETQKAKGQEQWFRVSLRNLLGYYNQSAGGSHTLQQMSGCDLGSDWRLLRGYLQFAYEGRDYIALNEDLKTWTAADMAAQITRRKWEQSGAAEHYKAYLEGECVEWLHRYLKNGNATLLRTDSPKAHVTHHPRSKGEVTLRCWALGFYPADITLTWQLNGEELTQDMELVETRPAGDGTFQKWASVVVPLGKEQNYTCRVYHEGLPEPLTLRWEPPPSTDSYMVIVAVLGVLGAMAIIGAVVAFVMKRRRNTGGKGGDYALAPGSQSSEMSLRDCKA
Procedure: In order to experimentally confirm the binding and stability of heteroclitic peptides to H-2 Db molecule, the H-2 Db positive RMA-S cell line was loaded with a sub-optimal concentration of 1 μM of peptides.
Supplementary file 12967_2021_3194_MOESM1_ESM.pptx: Additional file 1: Fig. S1. Predicted affinity of wt and hPep peptides. The affinity to H2-Db were predicted by NetMHCpan 4.1 for wt and heteroclitic peptides. The affinity (Aff) values are expressed in nanomolarity (nM). The selected hPep peptides are indicated for both E7 and Trp2 peptides. Fig. S2. Experimental affinity of wt and hPep peptides. Binding to H2-Db molecule was assessed in TAP-deficient RMA-S cells loaded with the indicated peptides. Mean fluorescence intensity at flow cytometer indicates binding levels of peptides to HLA molecules. Fig. S3. Comparison of short-term and long-term immunization. The curve of tumor growth in the short-term and long-term immunization experiments for the B16 (A) and TC1 (B) is indicated for each individual animal. The Kaplan-Meyer curves for the B16 (C) and TC1 (D) is indicated.

[1] = test system: TC-1 tumor cells expressing HPV16 E7 protein; assay: Preventive immunization and TC1 tumor challenge; format: in vivo, C57BL/6 mice
Procedure: (§1) C57BL/6 (H-2-Db) female mice, 8 weeks old, were purchased from Harlan (Udine, Italy). All animals were housed at the Animal Facility of the Istituto Nazionale Tumori “Pascale” (Naples, Italy). Mice were housed in number of 2–3 per cage and maintained in a conventional facility on a 12 h light:12 h dark cycle (lights on at 7:00 a.m.) in a temperature-controlled room (22 ± 2 °C) and with food and water ad libitum at all times. The experimental protocols were in compliance with the European Communities Council directive (86/609/EEC).
(§2) Mouse melanoma B16F10 (ATCC, CRL-6323) cells were cultured in DMEM medium supplemented with 10% heat inactivated FBS, 100 U/ml penicillin and […] streptomycin (Invitrogen, Carlsbad, CA) at 37 °C with 5% CO2. Cells were tested for mycoplasma before inoculation in mice (ATCC®, 30-1012 K™). Mouse lung TC-1 tumor cells expressing HPV16 E7 protein (ATCC, CRL-2493), were cultured in RPMI medium supplemented with 10% heat inactivated FBS, 100 U/ml penicillin and […] streptomycin (Invitrogen, Carlsbad, CA), HEPES 10 mM, MEM 0.1 mM and Na Piruvate 1 mM at 37 °C with 5% CO2.
(§3) B16F10 and TC1 cells were harvested in exponential growth phase by trypsinization and washed twice with ice-cold PBS. C57BL/6 mice were subcutaneously injected with 5 × 10^4 and 1 × 10^5 cells/mouse of B16F10 or TC1 respectively on the right back flank. A cell aliquot (200μL) containing 1 × 10^6 cells was loaded in 21G syringes for intra-splenic injection. The tumor size was measured and documented every two days with a caliper, starting on day 7, and calculated using the formula (AxB^2)/2 (A as the largest and B is the smallest diameter of tumor). Tumor growth was documented as mean tumor size with standard error. To record the survival of the tumor-bearing mice, either natural death or a tumor diameter greater than 1500 mm^3 leading to death was counted as death.
(§4) Cyclophosphamide (CTX) (Endoxan®, Baxter) (10 mg/Kg) and Paclitaxel (PTX) (Taxol®, BMS) (5 mg/Kg) diluted with phosphate-buffered saline (PBS) were administered via intraperitoneal injection (i.p.). The dose was extrapolated to human equivalent dose (HED). Metronomic Chemotherapy was weekly administered one day before the vaccine administration until the end of the experiment. An anti-mouse PD-1 MAb (BioXCell, West Lebanon, NH USA) was used as checkpoint inhibitor (CI) and administered via intraperitoneal injection (i.p.) at a dose of 100 μg.
Preventive experimental setting was performed as follow: C57BL/6 mice were immunized once a week for 4 weeks by subcutaneous administration (s.c.) with WT 100ug or a mix of equimolar ratio of heteroclitic peptides (100 ug tot) formulated in 50ug PolyI:C. At the end of the immunization protocol, a group of animals were implanted with of B16F10 or TC1 cell lines (short-term memory group). In parallel, a second group was left for 2 months without any further treatment before implantation of the same number of cells (long-term memory group). Immunizations were performed in combination with metronomic chemotherapy (MCT) and CI [24–26]. One group was treated only with MCT and CI (MCT + CI group). Control mice were treated with endotoxin-free phosphate-buffered saline (PBS). At the time of sacrifice, whole blood was collected by puncture of the sinus retro-orbital vein prior analgesia with oxybuprocaine chlorhydrate (Fig. 1).
Animals were immunized in a preventative setting with either the wt or the heteroclitic E7 and Trp2 peptides. At the end of the full vaccination protocol, animals were challenged with 5 × 10^5 TC1 or 1 × 10^4 B16 tumor cells, respectively.
In order to assess the anti-tumor efficacy of the long-term memory induced by the vaccination, animals were left free of active immunization for 2 months. Animals were then challenged with 5 × 10^5 TC1 or 1 × 10^4 B16 tumor cells, respectively. […] Similarly, in the TC1 model, the long-term immunity was unable to control tumor growth as for the short-term immune response. […]

IFN-γ secreting T cells [2] = assay: IFN-γ ELISpot on PBMCs, TC1 experimental group; format: cell-based, C57BL/6 mice; conditions: PBMC pools re-stimulated with 10 ug/ml single peptides
Procedure: (§5) ELISPOT was performed according to BD Biosciences manufacturer instructions (BD ELISPOT Mouse IFN-γ ELISPOT Set cod. 551,083). 5 × 10^5 splenocytes or 2 × 10^5 PBMCs from pooled samples were counted, plated in each well and stimulated with 10ug/ml of single peptides used for the immunization and incubated for 24-26 h. As negative and positive control, peptide diluents PBS and 5ug/ml of phorbol myristate acetate (PMA, Sigma-Aldrich) were used respectively. Plates were read with an AID EliSpot Reader Systems (AID GmbH, Strassberg, Germany). The results were calculated as spot forming counts as a mean of a duplicate count from the specific antigen stimulation minus the negative control.
(§6) Fig. 5 Immunological evaluation in the short-term immunization. Blood samples were drawn during the experiment from retro-orbital veins and PBMCs were isolated. Interferon-γ (IFN-γ) secreting T cells were evaluated in vitro after O/N re-stimulation with individual peptides. Pool of samples were used for each experimental groups. A and B B16 group; C and D TC1 group. SFU IFN-γ spot forming units
Fig. 7 Immunological evaluation in the long-term immunization. Blood samples were drawn during the experiment from retro-orbital veins and PBMCs were isolated. Interferon-γ (IFN-γ) secreting T cells were evaluated in vitro after O/N re-stimulation with individual peptides. […]

IFN-γ secreting T cells [3] = assay: IFN-γ ELISpot on PBMCs, B16 experimental group; format: cell-based, C57BL/6 mice; conditions: for vaccine-specific IFN-γ immune response: PBMC pools re-stimulated with 10 ug/ml single peptides; for cross-reactivity with the wt: PBMC pools, IFN-γ ELISpot
Procedure: as §5, §6
as §6, with “7” for “5”, “long-term” for “short-term”, “A–C” for “A and B”, “D–F” for “C and D”, “WT NEG animals in the WT group with no sign of tumor growth, HET NEG animals in the Heteroclitic group with no sign of tumor growth” for “SFU IFN-γ spot forming units”

B16F10 cells = assay: Preventive immunization and B16 tumor challenge; format: in vivo, C57BL/6 mice
Procedure: as §1, §2, §3, §4
Preventive experimental setting was performed as follow: C57BL/6 mice were immunized once a week for 4 weeks by subcutaneous administration (s.c.) with WT 100ug or a mix of equimolar ratio of heteroclitic peptides (100 ug tot) formulated in 50ug PolyI:C. […]

[4] = long-term: TC1 challenge 2 months after vaccination

RAHANIVTF [A4-E7, heteroclitic E7 peptide, Y4 to A substitution]
binding to the H2-Db molecule relative to wt (H-2 Db molecule): equivalent or higher than the wt

RAHYHIVTF [H5-E7, heteroclitic E7 peptide, N5 to H substitution]
binding to the H2-Db molecule relative to wt (H-2 Db molecule): complete loss of binding

RAHYNIVTF [WT-E7]
animals still alive (n/N) [1, 4]: 3/7
tumor-free animals [1, 4]: 1
effect on tumor growth ([1]; long-term: TC1 challenge 2 months after vaccination, compared to controls): significantly delayed
animals showing late tumor growth ([1]; short-term TC1, growth at day 42 and day 51 post-challenge, follow up to day 60, data not shown): two animals
survival ([1]; short-term: TC1 challenge at end of vaccination): 100%
effect on tumor growth ([1]; short-term: TC1 challenge at end of vaccination, up to day 34): completely inhibit the tumor growth

RAIYNIVTF [I3-E7, heteroclitic E7 peptide, H3 to I substitution]
vaccine-specific IFN-γ immune response (IFN-γ secreting T cells [2]; long-term setting): immunodominant
vaccine-specific IFN-γ immune response (IFN-γ secreting T cells [2]; short-term setting): immunodominant
binding to the H2-Db molecule relative to wt (H-2 Db molecule): equivalent or higher than the wt

SVCDFFVWL [C3-Trp2, heteroclitic Trp2 peptide, Y3 to C substitution]
binding to the H2-Db molecule relative to wt (H-2 Db molecule): equivalent binding

SVYAFFVWL [A4-Trp2, heteroclitic Trp2 peptide, D4 to A substitution]
binding to the H2-Db molecule relative to wt (H-2 Db molecule): equivalent binding
vaccine-specific IFN-γ immune response (IFN-γ secreting T cells [3]; long-term setting): immunodominant
cross-reactivity with the wt (IFN-γ secreting T cells [3]; long-term setting): low cross-reactivity
vaccine-specific IFN-γ immune response (IFN-γ secreting T cells [3]; short-term setting): immunodominant
cross-reactivity with the wt (IFN-γ secreting T cells [3]; short-term setting): low cross-reactivity

SVYDFFVWL [WT-Trp2]
vaccine-specific IFN-γ immune response (IFN-γ secreting T cells [3]; long-term setting): strong and comparable
vaccine-specific IFN-γ immune response (IFN-γ secreting T cells [3]; short-term setting): strong and comparable
survival of animals (B16F10 cells; long-term: B16 challenge 2 months after vaccination, day 27 post-challenge): all animals in the wt group reached the threshold for euthanasia
effect on tumor growth (B16F10 cells; short-term: B16 challenge at end of vaccination): significantly delay tumor growth
animals still alive (n/N) (B16F10 cells; short-term: B16 challenge at end of vaccination, 34 days post-challenge, 100 ug peptide s.c. weekly x4 in 50 ug PolyI:C, with MCT and CI): 2/6
animals still alive / survival (B16F10 cells; short-term: B16 challenge at end of vaccination, 34 days post-challenge, with PolyI:C, MCT and CI): 33.3% and 33%

SVYDNFVWL [N5-Trp2, heteroclitic Trp2 peptide, F5 to N substitution]
binding to the H2-Db molecule relative to wt (H-2 Db molecule): much better than the wt
